Assay: Viscosity / syringeability of 1% w/v solutions (VISCOMATE VM-10A)
Type: physicochemical
Conditions: 1% w/v in phosphate-buffered saline solution pH 7.4, 20±0.2° C., no stirring
Procedure: The syringeability of the HA-Re compound of the invention was analysed in comparison to that of hyaluronic acid both with a high and a low molecular weight.
In particular, the following three samples were prepared: • a) a 1% w/v solution of high molecular weight hyaluronic acid (average molecular weight approximately 1'200'000) in phosphate-buffered saline solution, pH 7.4 • b) a 1% w/v solution of low molecular weight hyaluronic acid (average molecular weight approximately 600'000) in phosphate-buffered saline solution, pH 7.4 • c) a 1% w/v solution of the HA-Re compound of the invention in phosphate-buffered saline solution, pH 7.4.
The viscosity of the samples was then measured using a VISCOMATE MODEL VM-10A (glass vial: 3 ml; in the absence of stirring conditions; temperature 20±0.2° C.), with the following values being obtained: • a) η=78.4 mPa·s • b) η=64.8 mPa·s • c) η=47.9 mPa·s

viscosity η: 64.8 mPa·s
Substance: low molecular weight hyaluronic acid
